Columns and labels:
[1] = biological target: T1, Amine oxidase [flavin-containing] B (Homo sapiens, UniProt P27338); test: Inhibition of recombinant human MAO-B expressed in baculovirus infected BTI insect cells at 10 uM preincubated for 30 mins followed by addition of p-tyramine as substrate measured over 45 mins by Amplex Red MAO assay relative to control; settings: 0.75 h
T1 sequence (P27338 whole entry): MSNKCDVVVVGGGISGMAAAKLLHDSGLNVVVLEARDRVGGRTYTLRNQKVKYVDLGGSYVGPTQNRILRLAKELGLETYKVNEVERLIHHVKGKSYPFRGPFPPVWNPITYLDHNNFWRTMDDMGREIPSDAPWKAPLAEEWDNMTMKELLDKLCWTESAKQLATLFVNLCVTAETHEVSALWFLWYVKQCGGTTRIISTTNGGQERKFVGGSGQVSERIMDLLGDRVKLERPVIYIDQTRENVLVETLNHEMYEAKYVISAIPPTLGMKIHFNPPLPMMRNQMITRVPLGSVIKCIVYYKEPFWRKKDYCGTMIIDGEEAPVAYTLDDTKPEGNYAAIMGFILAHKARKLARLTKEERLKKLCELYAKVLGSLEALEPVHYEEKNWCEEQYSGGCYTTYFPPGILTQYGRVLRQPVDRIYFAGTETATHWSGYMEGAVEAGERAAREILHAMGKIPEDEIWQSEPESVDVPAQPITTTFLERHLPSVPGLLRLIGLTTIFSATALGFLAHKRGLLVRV

[2] = biological target: T2, Adenosine receptor A3 (Homo sapiens, UniProt P0DMS8); test: Displacement of [3H]PSB-11 from human A3 receptor expressed in CHO cell membrane by liquid scintillation counting method relative to control; assay type: cell membranes
T2 sequence (P0DMS8 whole entry): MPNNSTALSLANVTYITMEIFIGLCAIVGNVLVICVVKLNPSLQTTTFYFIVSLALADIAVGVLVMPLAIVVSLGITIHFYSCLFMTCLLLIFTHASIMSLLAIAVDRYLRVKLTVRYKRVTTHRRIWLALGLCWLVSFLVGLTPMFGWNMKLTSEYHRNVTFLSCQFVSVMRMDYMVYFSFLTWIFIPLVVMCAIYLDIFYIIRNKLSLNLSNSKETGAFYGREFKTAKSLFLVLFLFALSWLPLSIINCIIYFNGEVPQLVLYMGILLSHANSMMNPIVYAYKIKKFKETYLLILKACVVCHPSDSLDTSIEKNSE

[3] = biological target: T1, Amine oxidase [flavin-containing] B; test: Inhibition of recombinant human MAO-B expressed in baculovirus infected BTI insect cells preincubated for 30 mins followed by addition of p-tyramine as substrate measured over 45 mins by Amplex Red MAO assay
[4] = biological target: Adenosine receptor A2a (Rattus norvegicus, UniProt P30543); test: Displacement of [3H]MSX from A2A receptor in rat brain striatum membranes measured after 30 mins by liquid scintillation counting method; assay type: cell membranes
[5] = biological target: T3, Adenosine receptor A1 (Rattus norvegicus, UniProt P25099); test: Displacement of [3H]CCPA from A1 receptor in rat brain cortex membranes by liquid scintillation counting method; assay type: cell membranes
T3 sequence (P25099 whole entry): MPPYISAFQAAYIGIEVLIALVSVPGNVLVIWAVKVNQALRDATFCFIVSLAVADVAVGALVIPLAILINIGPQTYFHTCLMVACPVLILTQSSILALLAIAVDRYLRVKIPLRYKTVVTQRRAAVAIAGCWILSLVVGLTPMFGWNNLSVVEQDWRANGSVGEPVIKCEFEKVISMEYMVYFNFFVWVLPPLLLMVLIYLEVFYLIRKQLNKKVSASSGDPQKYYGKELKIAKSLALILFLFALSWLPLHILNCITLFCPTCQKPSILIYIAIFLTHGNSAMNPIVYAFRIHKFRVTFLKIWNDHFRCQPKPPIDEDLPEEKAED

[6] = biological target: T4, Adenosine receptor A1 (Rattus norvegicus) (UniProt P25099); test: Displacement of [3H]CCPA from A1 receptor in rat brain cortex membranes at 1.5 uM by liquid scintillation counting method; assay type: cell membranes
T4 sequence (whole entry): T3 sequence (P25099 whole entry)

[7] = biological target: Adenosine receptor A2a (Rattus norvegicus) (UniProt P30543); test: Displacement of [3H]MSX from A2A receptor in rat brain striatum membranes at 1 uM measured after 30 mins by liquid scintillation counting method relative to control; assay type: cell membranes
[8] = biological target: T5, Adenosine receptor A2b (Homo sapiens) (UniProt P29275); test: Displacement of [3H]PSB-603 from human A2B receptor expressed in CHO cell membrane at […] relative to control; assay type: cell membranes
T5 sequence (whole entry): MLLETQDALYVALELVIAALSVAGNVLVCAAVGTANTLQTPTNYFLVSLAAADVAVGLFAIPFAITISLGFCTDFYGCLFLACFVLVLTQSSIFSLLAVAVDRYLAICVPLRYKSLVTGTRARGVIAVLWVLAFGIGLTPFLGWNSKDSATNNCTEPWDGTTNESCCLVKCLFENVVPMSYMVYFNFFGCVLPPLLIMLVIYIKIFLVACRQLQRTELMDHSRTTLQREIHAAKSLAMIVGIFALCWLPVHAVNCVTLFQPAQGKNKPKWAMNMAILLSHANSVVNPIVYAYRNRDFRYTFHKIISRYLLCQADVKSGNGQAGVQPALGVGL

Adenosine receptor A2a, sequence (P30543 whole entry): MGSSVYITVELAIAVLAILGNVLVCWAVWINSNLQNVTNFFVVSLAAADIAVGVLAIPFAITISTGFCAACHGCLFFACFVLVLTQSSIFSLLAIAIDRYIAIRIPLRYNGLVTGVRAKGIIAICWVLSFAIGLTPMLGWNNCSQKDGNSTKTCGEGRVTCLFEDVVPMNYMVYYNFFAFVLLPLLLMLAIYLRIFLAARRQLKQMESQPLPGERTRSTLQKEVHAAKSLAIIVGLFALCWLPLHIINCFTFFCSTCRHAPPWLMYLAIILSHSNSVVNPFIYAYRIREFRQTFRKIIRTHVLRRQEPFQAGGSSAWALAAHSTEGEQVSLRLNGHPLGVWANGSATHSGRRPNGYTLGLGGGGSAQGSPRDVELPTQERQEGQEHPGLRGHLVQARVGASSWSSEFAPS
Adenosine receptor A2a (Rattus norvegicus), sequence (P30543 whole entry): as above

inhibition at 10 µM [1]: 39%
Ki [2]: 8.72 µM
IC50 [3]: > 10 µM
Ki [4]: > 1 µM
Ki [5]: > 1.5 µM
Activity [6]: 21%
Activity [7]: 5%
inhibition [8]: 18%
SMILES: Cn1c(=O)c2c(nc3n2CCN(Cc2nocc2-c2ccccc2)C3)n(C)c1=O
